Source: PubChem BioAssay AID2060618 (Molecular Pharmacology Branch, DTP, NCI, 2025)

Tested on: 454973-116-R2-J3-PDC spheroids, percent test/control viability
Assay: Anticancer human tumor 454973-116-R2-J3-PDC patient-derived pancreatic carcinoma cell line growth inhibition [CLK]
Conditions: spheroids with HUVEC and MSC; for IC50: curve of first compound; for viability, T/C: stronger effect = lower value; active = viability on the fitted dose curve at most 10% of control; inactive = the rest
Method in brief: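 Multi-cell-type spheroids combined patient-derived tumor cells with HUVEC endothelial cells and human mesenchymal stem cells. Paired agents were dosed in half-log steps down from about clinical Cmax, or from 10 microM where Cmax was unknown.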

[1] = second compound 0.0316 µM, first compound 0.0316 µM
[2] = second compound 0.0316 µM, first compound 0.1 µM
[3] = second compound 0.0316 µM, first compound 0.316 µM
[4] = second compound 0.0316 µM, first compound 1 µM
[5] = second compound 0.0316 µM, first compound 3.16 µM
[6] = second compound 0.0316 µM, first compound 10 µM
[7] = second compound 0.1 µM, first compound 0.0316 µM
[8] = second compound 0.1 µM, first compound 0.1 µM
[9] = second compound 0.1 µM, first compound 0.316 µM
[10] = second compound 0.1 µM, first compound 1 µM
[11] = second compound 0.1 µM, first compound 3.16 µM
[12] = second compound 0.1 µM, first compound 10 µM
[13] = second compound 0.316 µM, first compound 0.0316 µM
[14] = second compound 0.316 µM, first compound 0.1 µM
[15] = second compound 0.316 µM, first compound 0.316 µM
[16] = second compound 0.316 µM, first compound 1 µM
[17] = second compound 0.316 µM, first compound 3.16 µM
[18] = second compound 0.316 µM, first compound 10 µM
[19] = second compound 1 µM, first compound 0.0316 µM
[20] = second compound 1 µM, first compound 0.1 µM
[21] = second compound 1 µM, first compound 0.316 µM
[22] = second compound 1 µM, first compound 1 µM
[23] = second compound 1 µM, first compound 3.16 µM
[24] = second compound 1 µM, first compound 10 µM
[25] = second compound 3.16 µM, first compound 0.0316 µM
[26] = second compound 3.16 µM, first compound 0.1 µM
[27] = second compound 3.16 µM, first compound 0.316 µM
[28] = second compound 3.16 µM, first compound 1 µM
[29] = second compound 3.16 µM, first compound 3.16 µM
[30] = second compound 3.16 µM, first compound 10 µM
[31] = second compound 10 µM, first compound 0.0316 µM
[32] = second compound 10 µM, first compound 0.1 µM
[33] = second compound 10 µM, first compound 0.316 µM
[34] = second compound 10 µM, first compound 1 µM
[35] = second compound 10 µM, first compound 3.16 µM
[36] = second compound 10 µM, first compound 10 µM
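Also: spheroids exposed to compounds for 7 days before readout.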

C#Cc1c(F)ccc2cc(O)cc(-c3ncc4c(N5CC6CCC(C5)N6)nc(OCC56CCCN5CC(F)C6)nc4c3F)c12 (stereo unspecified) + CNC(=O)c1ccc(Nc2nc(OC3CCCC3)c3c(-c4ccc5nc(C)oc5c4)c[nH]c3n2)c(OC)c1
inactive: viability, T/C [1] 52.8% | viability, T/C [2] 41.1% | viability, T/C [3] 32.7% | viability, T/C [4] 32.5% | viability, T/C [5] 29.4% | viability, T/C [6] 22.4% | viability, T/C [7] 50.7% | viability, T/C [8] 43.8% | viability, T/C [9] 33.5% | viability, T/C [10] 27.5% | viability, T/C [11] 26% | viability, T/C [12] 15.1% | viability, T/C [13] 37.8% | viability, T/C [14] 30.9% | viability, T/C [15] 19.4% | viability, T/C [16] 12.7% | viability, T/C [17] 13.8% | viability, T/C [18] 12.1% | viability, T/C [19] 16.7% | viability, T/C [20] 12.7% | viability, T/C [21] 12.2% | viability, T/C [22] 12.7% | viability, T/C [23] 10.9% | viability, T/C [25] 15.9% | viability, T/C [26] 12.7% | viability, T/C [27] 11.3% | viability, T/C [31] 17.9% | viability, T/C [32] 12.4% | viability, T/C [33] 11.5% | viability, T/C [34] 12%
< 31.6 nM: IC50 (second compound 0.316 µM) | IC50 (second compound 1 µM) | IC50 (second compound 3.16 µM) | IC50 (second compound 10 µM)
active: viability, T/C [24] 7.84% | viability, T/C [28] 11.3% | viability, T/C [29] 9.18% | viability, T/C [30] 6.34% | viability, T/C [35] 10.3% | viability, T/C [36] 5.25%
40.1 nM: IC50 (second compound 0.0316 µM)
35 nM: IC50 (second compound 0.1 µM)

C=C(F)C(=O)N1CCN(c2nc(OCC3CCCN3C)nc3c2CCN(c2cccc4cccc(Cl)c24)C3)CC1CC#N (stereo unspecified) + CNC(=O)c1ccc(Nc2nc(OC3CCCC3)c3c(-c4ccc5nc(C)oc5c4)c[nH]c3n2)c(OC)c1
active: viability, T/C [6] 1.38% | viability, T/C [12] 0.85% | viability, T/C [18] 0.19% | viability, T/C [36] 0.25%
4820 nM: IC50 (second compound 0.1 µM)
5840 nM: IC50 (second compound 0.0316 µM)
inactive: viability, T/C [1] 111% | viability, T/C [2] 114% | viability, T/C [3] 109% | viability, T/C [4] 109% | viability, T/C [5] 106% | viability, T/C [7] 96.9% | viability, T/C [8] 85% | viability, T/C [9] 75.7% | viability, T/C [10] 89.8% | viability, T/C [11] 78.3% | viability, T/C [13] 39.6% | viability, T/C [14] 36.1% | viability, T/C [15] 38.2% | viability, T/C [16] 37.2% | viability, T/C [17] 39.5% | viability, T/C [19] 35.2% | viability, T/C [20] 27.1% | viability, T/C [21] 30.4% | viability, T/C [22] 36.5% | viability, T/C [23] 31.1% | viability, T/C [24] 0.5% | viability, T/C [25] 29.8% | viability, T/C [26] 27.9% | viability, T/C [27] 28.5% | viability, T/C [28] 34.6% | viability, T/C [29] 27.2% | viability, T/C [30] 0.29% | viability, T/C [31] 28.2% | viability, T/C [32] 24.4% | viability, T/C [33] 26.5% | viability, T/C [34] 25.3% | viability, T/C [35] 19.2%
< 31.6 nM: IC50 (second compound 0.316 µM) | IC50 (second compound 1 µM) | IC50 (second compound 3.16 µM) | IC50 (second compound 10 µM)

CC(CO)NC(=O)c1cc(-c2ccc(Cl)cc2)nn(-c2cnn(C)c2)c1=O (stereo unspecified) + CNC(=O)c1ccc(Nc2nc(OC3CCCC3)c3c(-c4ccc5nc(C)oc5c4)c[nH]c3n2)c(OC)c1
inactive: viability, T/C [1] 105% | viability, T/C [2] 96.5% | viability, T/C [3] 111% | viability, T/C [4] 112% | viability, T/C [5] 100% | viability, T/C [6] 77% | viability, T/C [7] 105% | viability, T/C [8] 105% | viability, T/C [9] 96.2% | viability, T/C [10] 99.7% | viability, T/C [11] 101% | viability, T/C [12] 80.8% | viability, T/C [13] 46% | viability, T/C [14] 41.3% | viability, T/C [15] 47.2% | viability, T/C [16] 37.1% | viability, T/C [17] 45.2% | viability, T/C [18] 43.5% | viability, T/C [19] 33.7% | viability, T/C [20] 32.9% | viability, T/C [21] 32.8% | viability, T/C [22] 31.6% | viability, T/C [23] 30.8% | viability, T/C [24] 32.1% | viability, T/C [25] 24.5% | viability, T/C [26] 31.7% | viability, T/C [27] 30.2% | viability, T/C [28] 30.5% | viability, T/C [29] 34.9% | viability, T/C [30] 29% | viability, T/C [31] 30.3% | viability, T/C [32] 31.7% | viability, T/C [33] 31.8% | viability, T/C [34] 27.6% | viability, T/C [35] 29.3% | viability, T/C [36] 24.7%
< 31.6 nM: IC50 (second compound 0.316 µM) | IC50 (second compound 1 µM) | IC50 (second compound 3.16 µM) | IC50 (second compound 10 µM)
> 10000 nM: IC50 (second compound 0.0316 µM) | IC50 (second compound 0.1 µM)
